Results on one compound are retold here after PubChem BioAssay AID624119 (National Center for Advancing Translational Sciences (NCATS), 2012).

The target in this series is Cytochrome P450 2D6 (Homo sapiens) (UniProt P10635). The experiment in a line: qHTS Assay for Inhibitors of Bacillus subtilis Sfp phosphopantetheinyl transferase (PPTase): CYP 2D6. The settings on record: CYP2D6 inhibition, single concentration 3 uM; at 3 µM; stronger effect = higher value. The text has this:
The covalent attachment of a phosphopantetheinyl (4'-PP) arm to a variety of synthases and other proteins is a key posttranslational protein modification. The 4'-PP is installed on the proteins post-translationally from coenzyme A (CoA) on a conserved serine residue by action of phosphopantetheinyl transferase (PPTase) enzymes. Phosphopantetheinylation is essential for synthase activity, and removal of the PPTase gene precludes natural product synthesis in microorganisms, or in the case of fatty acid biosynthesis, renders the organism unviable. PPTase enzymes belong to a distinct structural superfamily. Within bacteria, these enzymes are grouped into two classes based upon primary structure, the AcpS-Type and Sfp-Type PPTases.
Sfp-type PPTases, corresponding to an activator of surfactin production in Bacillus subtilis, are responsible for modifying type I polyketide and nonribosomal peptide synthases of prokaryotes. Sfp-type PPTases are responsible for the activation of a variety of pathogen-associated virulence factors. Among these compounds are toxins such as mycolactone from Mycobacterium ulcerans, siderophores such as vibriobactin from Vibrio cholerae or mycobactin from Mycobacterium tuberculosis, as well as the mycolic acids which form the waxy cell wall of Mycobacteria. The biosyntheses of these natural products are considered attractive targets for drug design. […]
(In general: Quantitative high-throughput screening tests each substance at several concentrations.)

Chain of Cytochrome P450 2D6 (Homo sapiens) (P10635 whole entry, looked up): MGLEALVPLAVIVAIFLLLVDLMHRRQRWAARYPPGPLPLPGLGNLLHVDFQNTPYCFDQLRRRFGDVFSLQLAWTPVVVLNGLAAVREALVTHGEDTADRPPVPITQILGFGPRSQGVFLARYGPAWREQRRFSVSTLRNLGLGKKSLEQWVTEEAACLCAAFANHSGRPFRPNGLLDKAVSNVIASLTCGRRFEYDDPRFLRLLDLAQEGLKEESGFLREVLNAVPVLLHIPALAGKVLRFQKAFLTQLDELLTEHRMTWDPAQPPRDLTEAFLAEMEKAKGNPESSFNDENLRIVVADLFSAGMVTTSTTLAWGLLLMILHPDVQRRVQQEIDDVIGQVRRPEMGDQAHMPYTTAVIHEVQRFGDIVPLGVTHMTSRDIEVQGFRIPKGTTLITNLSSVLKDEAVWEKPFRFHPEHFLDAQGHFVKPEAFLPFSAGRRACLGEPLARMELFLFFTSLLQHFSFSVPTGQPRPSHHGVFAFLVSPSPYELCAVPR

With `COc1ccnc(NC(=S)N2CCN(c3ncc(C(F)(F)F)cc3Cl)CC2)c1`, the inhibition was 25%.

As a reminder, the inhibition is the percentage by which the read-out fell short of the control.
